ChEMBL document CHEMBL1201862, “PubChem BioAssay data set” (2004)
Values joined by “and” are separate entries in the source; they are usually repeats but may differ in a detail not shown here. Identical values can stand only once.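 Compound exposure: 48 hours, 5 concentrations, 96-well plates. GI50 = concentration required for 50% inhibition of growth.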 Active and inactive are the calls of the source. Cut-off read from the data, not from the text of the source: active = GI50 up to about 1.1 µM and inactive = higher.

Legend:
Assay in all cases: NCI anticancer screen, dose series, 48 h
786-0 = system: 786-0
A498 = system: A498
A549 = system: A549
ACHN = system: ACHN
CAKI-1 = system: CAKI-1
CCRF-CEM = system: CCRF-CEM
COLO 205 = system: COLO 205
DU-145 = system: DU-145
EKVX = system: EKVX
HCC 2998 = system: HCC 2998
HCT-116 = system: HCT-116
HCT-15 = system: HCT-15
HL-60 = system: HL-60
HOP-62 = system: HOP-62
HT-29 = system: HT-29
IGROV-1 = system: IGROV-1
K562 = system: K562
KM12 = system: KM12
LOX IMVI = system: LOX IMVI
M14 = system: M14
MCF7 = system: MCF7
MDA-MB-231 = system: MDA-MB-231
MDA-MB-435 = system: MDA-MB-435
MDA-N = system: MDA-N
MOLT-4 = system: MOLT-4
Malme-3M = system: Malme-3M
NCI-H226 = system: NCI-H226
NCI-H23 = system: NCI-H23
NCI-H460 = system: NCI-H460
NCI-H522 = system: NCI-H522
NCI/ADR-RES = system: NCI/ADR-RES
OVCAR-3 = system: OVCAR-3
OVCAR-4 = system: OVCAR-4
OVCAR-5 = system: OVCAR-5
OVCAR-8 = system: OVCAR-8
PC-3 = system: PC-3
RXF 393 = system: RXF 393
SF-268 = system: SF-268
SF-295 = system: SF-295
SF-539 = system: SF-539
SK-MEL-28 = system: SK-MEL-28
SK-MEL-2 = system: SK-MEL-2
SK-MEL-5 = system: SK-MEL-5
SK-OV-3 = system: SK-OV-3
SN12C = system: SN12C
SNB-19 = system: SNB-19
SNB-75 = system: SNB-75
SR = system: SR
SW-620 = system: SW-620
T47D = system: T47D
TK-10 = system: TK-10
U-251 = system: U-251
UACC-257 = system: UACC-257
UACC-62 = system: UACC-62
UO-31 = system: UO-31
HOP-92 = system: HOP-92
Hs-578T = system: Hs-578T
RPMI-8226 = system: RPMI-8226

`O=c1c2ccccc2n2c(S)nnc2n1-c1ccccc1` was tested, and the GI50 (786-0) was > 100 µM (inactive), the GI50 (A498) was > 100 µM (inactive) and the GI50 (A549) was > 100 µM (inactive). For the same compound, the GI50 (ACHN) was > 100 µM (inactive), the GI50 (CAKI-1) was > 100 µM (inactive) and the GI50 (CCRF-CEM) was > 100 µM (inactive). For the same compound, the GI50 (COLO 205) was > 100 µM (inactive), the GI50 (DU-145) was > 100 µM (inactive) and the GI50 (EKVX) was > 100 µM (inactive). For the same compound, the GI50 (HCC 2998) was > 100 µM (inactive), the GI50 (HCT-116) was > 100 µM (inactive) and the GI50 (HCT-15) was greater than 100 µM. For the same compound, the GI50 (HL-60) was > 100 µM (inactive), the GI50 (HOP-62) was > 100 µM (inactive) and the GI50 (HT-29) was > 100 µM (inactive). The GI50 (IGROV-1) was > 100 µM (inactive), the GI50 (K562) was > 100 µM (inactive) and the GI50 (KM12) was > 100 µM (inactive). For the same compound, the GI50 (LOX IMVI) was > 100 µM (inactive), the GI50 (M14) was > 100 µM (inactive) and the GI50 (MCF7) was > 100 µM (inactive). For the same compound, the GI50 (MDA-MB-231) was > 100 µM (inactive), the GI50 (MDA-MB-435) was > 100 µM (inactive) and the GI50 (MDA-N) was > 100 µM (inactive). The GI50 (MOLT-4) was > 100 µM (inactive), the GI50 (Malme-3M) was > 100 µM (inactive) and the GI50 (NCI-H226) was > 100 µM (inactive). The GI50 (NCI-H23) was > 100 µM (inactive), the GI50 (NCI-H460) was > 100 µM (inactive) and the GI50 (NCI-H522) was > 100 µM (inactive). For the same compound, the GI50 (NCI/ADR-RES) was > 100 µM (inactive), the GI50 (OVCAR-3) was > 100 µM (inactive) and the GI50 (OVCAR-4) was > 100 µM (inactive). The GI50 (OVCAR-5) was > 100 µM (inactive), the GI50 (OVCAR-8) was > 100 µM (inactive) and the GI50 (PC-3) was > 100 µM (inactive). The GI50 (RXF 393) was > 100 µM (inactive), the GI50 (SF-268) was > 100 µM (inactive) and the GI50 (SF-295) was > 100 µM (inactive). For the same compound, the GI50 (SF-539) was > 100 µM (inactive), the GI50 (SK-MEL-28) was > 100 µM (inactive) and the GI50 (SK-MEL-2) was > 100 µM (inactive). The GI50 (SK-MEL-5) was > 100 µM (inactive), the GI50 (SK-OV-3) was > 100 µM (inactive) and the GI50 (SN12C) was > 100 µM (inactive). For the same compound, the GI50 (SNB-19) was > 100 µM (inactive), the GI50 (SNB-75) was 21.1 µM (inactive) and the GI50 (SR) was > 100 µM (inactive). For the same compound, the GI50 (SW-620) was > 100 µM (inactive), the GI50 (T47D) was > 100 µM (inactive) and the GI50 (TK-10) was > 100 µM (inactive). The GI50 (U-251) was > 100 µM (inactive), the GI50 (UACC-257) was > 100 µM (inactive) and the GI50 (UACC-62) was > 100 µM (inactive). The GI50 (UO-31) was > 100 µM (inactive).
In the case of `COc1cc(OC)c(OC)cc1/C=C\c1nccc2ccccc12`, the GI50 (A549) is reported as 25.6 µM (inactive), the GI50 (CAKI-1) is reported as 22.5 µM (inactive) and the GI50 (CCRF-CEM) is reported as 76.2 µM (inactive). For the same compound, the GI50 (COLO 205) was 22.5 µM (inactive), the GI50 (DU-145) was 16.3 µM (inactive) and the GI50 (EKVX) was 22.2 µM (inactive). The GI50 (HCT-116) was 18.1 µM (inactive), the GI50 (HCT-15) was greater than 10 µM and the GI50 (HL-60) was 18.7 µM (inactive). For the same compound, the GI50 (HOP-92) was 15.3 µM (inactive), the GI50 (Hs-578T) was 28.3 µM (inactive) and the GI50 (IGROV-1) was 28.5 µM (inactive). For the same compound, the GI50 (K562) was 28.9 µM (inactive), the GI50 (KM12) was 15.1 µM (inactive) and the GI50 (M14) was 16.7 µM (inactive). For the same compound, the GI50 (MDA-N) was > 10 µM (inactive), the GI50 (MOLT-4) was 16.1 µM (inactive) and the GI50 (Malme-3M) was 33 µM (inactive). The GI50 (NCI-H23) was 23.4 µM (inactive), the GI50 (NCI/ADR-RES) was 31.2 µM (inactive) and the GI50 (OVCAR-4) was 29.1 µM (inactive). For the same compound, the GI50 (OVCAR-5) was 29.3 µM (inactive), the GI50 (OVCAR-8) was 23.2 µM (inactive) and the GI50 (PC-3) was 27.8 µM (inactive). For the same compound, the GI50 (RPMI-8226) was 18.7 µM (inactive), the GI50 (RXF 393) was 18.7 µM (inactive) and the GI50 (SF-268) was 23.3 µM (inactive). The GI50 (SF-295) was 24 µM (inactive), the GI50 (SK-MEL-28) was 29.3 µM (inactive) and the GI50 (SK-MEL-5) was 15.2 µM (inactive). The GI50 (SK-OV-3) was 32.8 µM (inactive), the GI50 (SNB-19) was 18.5 µM (inactive) and the GI50 (SNB-75) was 23.9 µM (inactive). For the same compound, the GI50 (SR) was 20.9 µM (inactive), the GI50 (SW-620) was 26.9 µM (inactive) and the GI50 (T47D) was 24.2 µM (inactive). For the same compound, the GI50 (TK-10) was 27.8 µM (inactive), the GI50 (U-251) was 24.9 µM (inactive) and the GI50 (UO-31) was 16.8 µM (inactive).
For `CN1C/C(=C\c2ccccc2[N+](=O)[O-])C(=O)/C(=C/c2ccccc2[N+](=O)[O-])C1`, the GI50 (786-0) was 0.277 µM (active), the GI50 (A498) was 2.17 µM (inactive) and the GI50 (A549) was 3.55 µM (inactive). The GI50 (COLO 205) was 0.25 µM (active), the GI50 (DU-145) was 2.2 µM (inactive) and the GI50 (HCC 2998) was 1.01 µM (active). The GI50 (HCT-116) was 0.195 µM (active), the GI50 (HCT-15) was 0.262 µM and the GI50 (HL-60) was 0.112 µM (active). The GI50 (HOP-62) was 2.48 µM (inactive), the GI50 (HOP-92) was 0.836 µM (active) and the GI50 (IGROV-1) was 0.782 µM (active). The GI50 (KM12) was 1.99 µM (inactive), the GI50 (MCF7) was 0.348 µM (active) and the GI50 (MOLT-4) was 0.238 µM (active). The GI50 (NCI-H226) was 5.05 µM (inactive), the GI50 (NCI-H460) was 1.79 µM (inactive) and the GI50 (NCI/ADR-RES) was 1.03 µM (active). The GI50 (PC-3) was 1.23 µM (inactive), the GI50 (SK-MEL-2) was 2.11 µM (inactive) and the GI50 (SK-MEL-5) was 0.902 µM (active). For the same compound, the GI50 (SK-OV-3) was 3.02 µM (inactive), the GI50 (SNB-19) was 4.26 µM (inactive) and the GI50 (SNB-75) was 2.21 µM (inactive). The GI50 (SW-620) was 0.201 µM (active), the GI50 (TK-10) was 1.17 µM (inactive) and the GI50 (U-251) was 1.19 µM (inactive). The GI50 (UACC-62) was 0.771 µM (active) and the GI50 (UO-31) was 0.303 µM (active).
With `Nc1nc(Cl)c(/N=N/c2ccc(Cl)cc2)c(NCC2(CO)CC(OCc3ccccc3)C2)n1` (stereo unspecified) the GI50 (ACHN) was 1.53 µM (inactive) and 1.73 µM (inactive), the GI50 (CAKI-1) was 3.31 µM (inactive) and 1.82 µM (inactive) and the GI50 (HL-60) was 3.63 µM (inactive) and 3.48 µM (inactive). For the same compound, the GI50 (K562) was 4.98 µM (inactive) and 3.03 µM (inactive), the GI50 (Malme-3M) was 1.62 µM (inactive) and the GI50 (SNB-75) was 6.71 µM (inactive). The GI50 (T47D) was 3.67 µM (inactive) and 3.15 µM (inactive) and the GI50 (UO-31) was 2.92 µM (inactive) and 2.08 µM (inactive).
